We go through one molecule from patent US20250009697A1, “COMPOSITION FOR INCREASING AMOUNT OF FOOD INGESTED AND/OR IMPROVING ANOREXIA, AND COMPOSITION FOR ACTIVATING TRANSIENT RECEPTOR POTENTIAL ANKYRIN 1” (HOUSE FOODS GROUP INC., priority 2021, published 2025).

SMILES strings stand for the structures.

The target of one assay is T1, Human TRPA1 (hTRPA1) (Homo sapiens, UniProt O75762).
T1 construct: expressed in transfected cells
Put plainly: TRPA1 Activation Test 2: intracellular Ca2+ imaging assay 2-1 to 2-3, hTRPA1 stably expressing cell line. It counts as cell-based. To be noted: for TRPA1 activation rate: Table 7; for TRPA1 activation rate, With antagonist: A-967079 1 μM; for TRPA1 activation rate, With antagonist / TRPA1 activation rate, Without antagonist: Table 8. On the procedure:
(§1) DNAs encoding genes described in the following Table 2 were inserted into pcDNA 5/TO vector (Invitrogen) to prepare various expression vectors.
(§2) These expression vectors were transfected into T-REx™_293 cells (Invitrogen) by a conventional method using Lipofectamine LTX (Invitrogen). Then, various transfectants were cultured and cloned by a conventional method using Dulbecco's Modified Eagle Medium (DMEM, Nacalai Tesque Inc.), containing 10% fetal bovine serum (FBS, Cytiva), […] of hygromycin B, and 5 μg/mL of blasticidin S, as a drug selection medium to obtain a hTRPA1 stably expressing cell line, a hTRPV1 stably expressing cell line, and a hTRPM8 stably expressing cell line.
(§3) A hTRPA1 stably expressing cell line in which expression of hTRPA1 had been induced in advance by a conventional method was prepared in a 96 well clear bottom plate, and the hTRPA1 activating action of rhein (produced by Tokyo Chemical Industry Co., Ltd.) was tested. Specifically, after each well was washed with PBS, 50 μL of an assay buffer (Hanks' balanced salt solution containing no calcium ion or magnesium ion that contained 1 mM of CaCl2 dihydrate, 20 mM of HEPES, and 0.1% BSA) containing calcium fluorescent indicator Calbryte™ 520 AM (produced by AAT Bioquest) in a final concentration of 4 μM was added, followed by incubating at 33° C. for 45 minutes. After washing with the assay buffer, 100 μL of the assay buffer was added to each well. This plate was set to FlexStation 3 (Molecular Devices, LLC), and a fluorescence intensity (excitation wavelength 490 nm, fluorescence wavelength 525 nm) at 31° C. was measured every two seconds, and 30 seconds after the start of the measurement, 100 μL of an assay buffer containing a test sample (allyl isothiocyanate (AITC) of positive control or rhein) which was prepared to have a certain final concentration or DMSO was added. Then, a well in which an assay buffer containing ionomycin (having a final concentration of 10 μM after the addition) instead of the test samples was added was also prepared as a reference for fluorescence intensity.
(§4) The measurement was continued from the start of the measurement up to 120 seconds, and the TRPA1 activation ability of the test samples was calculated in accordance with the following formula.
(§5) Activation rate (%)=(Fmax[s]−F0)/(Fmax[i]−F0)×100 • Fmax[s]: The maximum value of the fluorescence intensity when the test sample or positive control was added • F0: The average value of the fluorescence intensity for 20 seconds after the start of the measurement (base line) • Fmax[i]: The maximum value of the fluorescence intensity when ionomycin was added
The TRPA1 activation ability of each test sample was measured in the same manner as in the above (2) except the test was conducted with A-967079 (1 μM), which is a TRPA1-specific antagonist, or without A-967079. In addition, intracellular Ca^2+ imaging assay was conducted in the same manner as in the above (2) except that a hTRPV1 stably expressing cell line, a hTRPM8 stably expressing cell line, or a Mock cell was used instead of the hTRPA1 stably expressing cell line. Note that capsaicin was used as positive control for the hTRPV1 stably expressing cell line, and icilin was used as positive control for the hTRPM8 stably expressing cell line.
A TRPA1 activation ability was measured in the same manner as in the above (2) by using, as a test sample, rhein or compounds described in the following Table 10, which had anthraquinone structures similar to rhein, at a concentration of 200 μM of the test sample.

A further assay has as its target T2, Human TRPV1 (hTRPV1) (Homo sapiens, UniProt Q8NER1).
T2 construct: expressed in transfected cells
Kind of assay: TRPA1 Activation Test 2: intracellular Ca2+ imaging assay 2-2, hTRPV1 stably expressing cell line. In kind it is cell-based. As to conditions: for TRPV1 activation rate: Table 9. On the procedure: as §1, §2
as §3, with “This plate was set to FlexStation 3 (Molecular Devices, LLC), and a fluorescence intensity (excitation wavelength 490 nm, fluorescence wavelength 525 nm) at 31° C. was measured every two seconds, and 30 seconds after the start of the measurement, 100 μL of an assay buffer containing a test sample (allyl isothiocyanate (AITC) of positive control or rhein) which was prepared to have a certain final concentration or DMSO was added.” left out
as §4, §5
(§6) The TRPA1 activation ability of each test sample was measured in the same manner as in the above (2) except the test was conducted with A-967079 (1 μM), which is a TRPA1-specific antagonist, or without A-967079. In addition, intracellular Ca^2+ imaging assay was conducted in the same manner as in the above (2) except that a hTRPV1 stably expressing cell line, a hTRPM8 stably expressing cell line, or a Mock cell was used instead of the hTRPA1 stably expressing cell line. […]

A further assay addresses T3, Human TRPM8 (hTRPM8) (Homo sapiens, UniProt Q7Z2W7).
T3 construct: expressed in transfected cells
Kind of assay: TRPA1 Activation Test 2: intracellular Ca2+ imaging assay 2-2, hTRPM8 stably expressing cell line. In kind it is cell-based. To be noted: for TRPM8 activation rate: Table 9. On the procedure:
as §1, §2
as §3, with “This plate was set to FlexStation 3 (Molecular Devices, LLC), and a fluorescence intensity (excitation wavelength 490 nm, fluorescence wavelength 525 nm) at 31° C. was measured every two seconds, and 30 seconds after the start of the measurement, 100 μL of an assay buffer containing a test sample (allyl isothiocyanate (AITC) of positive control or rhein) which was prepared to have a certain final concentration or DMSO was added.” left out
as §4, §5, §6

A short description of assay [1]: Anorexia Improving Test 2: cumulative amounts of food ingested of mice, rhein. In kind it is in vivo. As for the experimental part: Male ICR mice were housed in individual cages in which ALPHA-dri (Shepherd Specialty Papers) was laid, and were acclimatized and raised for at least one week or more while a powder feed (CE-2, CLEA Japan, Inc.) was given to the mice by using a powder feeder for mice (SN-950, Shinano Manufacturing Co., Ltd.). Then, for several days before the experiment, handling and oral administration training using a feeding needle (FG4202, Fuchigami Kikai Co., Ltd.) were conducted every day.
To 9 week-old mice under ad libitum feeding conditions, a carrier solution (containing 2% of dimethyl sulfoxide and 98% of a 0.5% methyl cellulose solution in volume ratio) or a rhein solution (obtained by dissolving 8.53 mg of rhein in 1 mL of the carrier solution) was orally administered from 9:20 a.m. (10 mL/kg body weight). […] Then, a feeder the mass of which had been measured in advance was set in the cage at 9:30 a.m. The masses of the feeder and the feed spilled in the cage 0.5, 1, 2, and 3 hours after the start of the feeding experiment were measured, and the ingested mass (g) at each time was measured (n=6).

T1 sequence (O75762 whole entry): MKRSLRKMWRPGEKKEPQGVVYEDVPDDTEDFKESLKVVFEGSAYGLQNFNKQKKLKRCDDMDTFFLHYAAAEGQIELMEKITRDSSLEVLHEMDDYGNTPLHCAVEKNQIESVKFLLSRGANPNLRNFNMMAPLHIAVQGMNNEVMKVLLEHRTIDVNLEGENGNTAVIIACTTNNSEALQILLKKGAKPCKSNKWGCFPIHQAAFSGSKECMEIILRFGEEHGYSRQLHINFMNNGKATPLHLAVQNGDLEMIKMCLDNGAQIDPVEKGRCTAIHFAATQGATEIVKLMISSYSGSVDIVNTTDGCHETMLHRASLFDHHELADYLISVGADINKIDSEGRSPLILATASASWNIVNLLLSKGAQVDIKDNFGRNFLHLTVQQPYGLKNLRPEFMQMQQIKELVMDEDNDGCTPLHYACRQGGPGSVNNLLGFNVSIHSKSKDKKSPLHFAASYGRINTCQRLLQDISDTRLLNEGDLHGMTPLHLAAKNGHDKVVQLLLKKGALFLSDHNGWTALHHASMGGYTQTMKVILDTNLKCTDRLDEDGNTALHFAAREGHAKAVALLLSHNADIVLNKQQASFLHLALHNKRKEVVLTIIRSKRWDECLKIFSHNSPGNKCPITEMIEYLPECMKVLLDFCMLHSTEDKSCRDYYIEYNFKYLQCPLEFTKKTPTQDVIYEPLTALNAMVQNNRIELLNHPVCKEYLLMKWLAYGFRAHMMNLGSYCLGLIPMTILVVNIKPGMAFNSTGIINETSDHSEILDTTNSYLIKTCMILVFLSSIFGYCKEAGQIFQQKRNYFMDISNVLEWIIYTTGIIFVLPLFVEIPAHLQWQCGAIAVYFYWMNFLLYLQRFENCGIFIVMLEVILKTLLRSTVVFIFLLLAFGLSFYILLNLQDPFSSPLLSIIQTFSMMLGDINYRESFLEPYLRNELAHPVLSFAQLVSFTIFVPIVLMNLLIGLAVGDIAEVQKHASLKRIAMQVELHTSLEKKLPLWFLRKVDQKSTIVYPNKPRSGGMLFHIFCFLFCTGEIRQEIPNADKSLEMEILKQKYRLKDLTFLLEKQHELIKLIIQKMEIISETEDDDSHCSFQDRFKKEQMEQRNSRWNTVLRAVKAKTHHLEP
T3 sequence (Q7Z2W7 whole entry): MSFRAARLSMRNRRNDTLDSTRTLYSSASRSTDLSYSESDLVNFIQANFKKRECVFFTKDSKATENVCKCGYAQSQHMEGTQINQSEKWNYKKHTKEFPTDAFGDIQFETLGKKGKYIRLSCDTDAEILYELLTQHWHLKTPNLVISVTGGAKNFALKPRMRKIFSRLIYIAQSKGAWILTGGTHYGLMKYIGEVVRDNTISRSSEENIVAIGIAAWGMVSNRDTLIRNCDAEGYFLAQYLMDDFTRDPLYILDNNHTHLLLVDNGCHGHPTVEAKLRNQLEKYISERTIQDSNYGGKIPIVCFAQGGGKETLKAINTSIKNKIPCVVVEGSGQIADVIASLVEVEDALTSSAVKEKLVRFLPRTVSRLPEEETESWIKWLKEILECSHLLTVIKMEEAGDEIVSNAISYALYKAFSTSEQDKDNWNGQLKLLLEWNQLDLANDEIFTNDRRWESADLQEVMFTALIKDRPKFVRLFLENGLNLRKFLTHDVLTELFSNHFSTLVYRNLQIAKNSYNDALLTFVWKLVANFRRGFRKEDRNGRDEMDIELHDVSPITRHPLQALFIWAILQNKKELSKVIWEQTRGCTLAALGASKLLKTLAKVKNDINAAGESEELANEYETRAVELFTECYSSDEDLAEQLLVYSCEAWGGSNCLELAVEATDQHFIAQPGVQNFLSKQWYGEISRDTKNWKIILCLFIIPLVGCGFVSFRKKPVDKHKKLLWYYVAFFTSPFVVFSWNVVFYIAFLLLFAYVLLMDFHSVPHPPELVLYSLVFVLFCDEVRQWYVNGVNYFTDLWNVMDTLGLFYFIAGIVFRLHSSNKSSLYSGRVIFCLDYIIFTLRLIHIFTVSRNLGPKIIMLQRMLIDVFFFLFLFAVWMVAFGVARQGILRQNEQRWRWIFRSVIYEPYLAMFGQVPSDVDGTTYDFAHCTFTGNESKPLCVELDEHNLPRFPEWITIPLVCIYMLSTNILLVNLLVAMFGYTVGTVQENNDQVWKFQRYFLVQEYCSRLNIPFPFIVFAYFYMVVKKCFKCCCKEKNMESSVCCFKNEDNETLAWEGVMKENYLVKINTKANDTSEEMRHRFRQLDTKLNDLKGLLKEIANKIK
T2 sequence (Q8NER1 whole entry): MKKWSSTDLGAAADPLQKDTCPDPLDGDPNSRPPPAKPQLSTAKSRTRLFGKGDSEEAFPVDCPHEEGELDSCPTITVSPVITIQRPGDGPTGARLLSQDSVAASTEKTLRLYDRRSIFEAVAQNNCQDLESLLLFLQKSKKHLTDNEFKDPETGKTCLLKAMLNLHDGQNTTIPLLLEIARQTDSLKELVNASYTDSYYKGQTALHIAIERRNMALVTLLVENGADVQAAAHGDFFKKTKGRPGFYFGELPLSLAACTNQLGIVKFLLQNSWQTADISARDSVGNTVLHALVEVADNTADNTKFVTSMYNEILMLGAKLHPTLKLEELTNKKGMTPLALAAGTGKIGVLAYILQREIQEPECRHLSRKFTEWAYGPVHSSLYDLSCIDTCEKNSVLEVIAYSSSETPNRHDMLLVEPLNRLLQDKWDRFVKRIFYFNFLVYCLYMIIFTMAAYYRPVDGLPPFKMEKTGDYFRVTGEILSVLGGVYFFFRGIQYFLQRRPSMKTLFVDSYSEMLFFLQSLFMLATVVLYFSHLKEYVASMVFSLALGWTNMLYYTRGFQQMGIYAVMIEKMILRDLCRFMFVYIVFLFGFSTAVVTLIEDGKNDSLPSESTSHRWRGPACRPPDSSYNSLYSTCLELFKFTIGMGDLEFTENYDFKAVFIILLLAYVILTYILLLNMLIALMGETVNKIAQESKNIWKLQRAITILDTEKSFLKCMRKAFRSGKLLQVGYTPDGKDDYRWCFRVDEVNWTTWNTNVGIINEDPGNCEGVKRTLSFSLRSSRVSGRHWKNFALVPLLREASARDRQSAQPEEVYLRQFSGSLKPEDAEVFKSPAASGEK

Regarding `O=C(O)c1cc(O)c2c(c1)C(=O)c1cccc(O)c1C2=O` [Rhein, rhein], on Human TRPA1 (hTRPA1) (A-967079), the “TRPA1 activating action with TRPA1-specific antagonist (in words)” value is reported as “inhibited by the TRPA1-specific antagonist”. Also, the “TRPA1 activating action (in words)” value on Human TRPA1 (hTRPA1) (hTRPA1 stably expressing cell line) was “activated TRPA1 in concentration dependent manner”. Besides, the TRPA1 activation rate on Human TRPA1 (hTRPA1) (test sample 1 μM) was determined as 0.57 ± 0.0414%; at Human TRPA1 (hTRPA1) (test sample 10 μM) it was 19.1 ± 1.00%; at Human TRPA1 (hTRPA1) (test sample 25 μM) it was 41.1 ± 1.51%; on Human TRPA1 (hTRPA1) (test sample 50 μM), 66.4 ± 1.45%; at Human TRPA1 (hTRPA1) (test sample 75 μM) it was 69.7 ± 1.25%; at Human TRPA1 (hTRPA1) (test sample 100 μM), 75.5 ± 1.19%. On Human TRPA1 (hTRPA1) (test sample 200 μM), this molecule returned a TRPA1 activation rate of 85.7 ± 1.62%. Besides, the figures for the “TRPA1 activation rate, With antagonist” value on Human TRPA1 (hTRPA1) (test sample 100 μM) and on Human TRPA1 (hTRPA1) (test sample 200 μM) were 3.26 ± 0.102 % and 8.40 ± 0.238 %, respectively. The figures for the “TRPA1 activation rate, Without antagonist” value at Human TRPA1 (hTRPA1) (test sample 100 μM) and on Human TRPA1 (hTRPA1) (test sample 200 μM) were 79.4 ± 4.08% and 82.1 ± 0.918%, respectively. Further, the TRPA1 activation rates on Human TRPA1 (hTRPA1) (test sample 200 μM, Table 10) turned out to be 85.7 ± 1.62%. For the same molecule, at Human TRPV1 (hTRPV1) (hTRPV1 stably expressing cell line), the “TRPV1 activation (in words)” value is “not activated”. Further, the TRPV1 activation rate at Human TRPV1 (hTRPV1) (test sample 100 μM) was 2.40 ± 0.0395%; at Human TRPV1 (hTRPV1) (test sample 200 μM), 5.49 ± 0.0830%. Moreover, at Human TRPM8 (hTRPM8) (hTRPM8 stably expressing cell line), the “TRPM8 activation (in words)” value is on record as “not activated”. Besides, the values for the TRPM8 activation rate on Human TRPM8 (hTRPM8) (test sample 100 μM) and at Human TRPM8 (hTRPM8) (test sample 200 μM) were 2.52 ± 0.0847% and 5.71 ± 0.118%, respectively. Also, the “Cumulative amounts of food ingested of mice (in words)” value in assay [1] (100 μmol/kg body weight, FIG. 4) was “significantly increased”; in assay [1] (oral, 300 μmol/kg body weight, 0.5 to 3 hours, FIG. 3) it was “increased”.
